{"source": "patent US8652473B2", "about": "“Antibodies to EGF receptor epitope peptides and uses thereof” (Ludwig Institute for Cancer Research Ltd., priority 2004, dated 2014)", "data": [{"tested_on": "mAb 806 binding to immobilized 1-501 EGFR fragment", "experiment": "ELISA, peptide inhibition of mAb […] binding to 1-501 EGFR", "design": "species or system human", "details": "peptide in solution, increasing concentrations", "values": [{"substance": "CGADSYEMEEDG (epitope peptide) [287-298 EGFR peptide]", "inhibition of mAb […] binding to immobilized 1-501 fragment (ELISA)": "did not inhibit"}]}, {"tested_on": "mAb 806", "experiment": "Binding of yeast surface displayed EGFR 273-621 point mutants to mAb […] (flow cytometry)", "design": "species or system mouse; key: ++ indicates wild type binding; +, intermediate binding; −, binding equal to negative control", "details": "EGFR Mutant (Library), 273-621 on yeast; 75 nM 806", "method": "(§1) Out of 100 clones sequenced, roughly 20% contained multiple mutations and were omitted from subsequent analysis. […] All mutations are localized to the disulfide-bonded loop between cysteines 287 and 302, as has been previously determined (34). […] To verify the results from the fine epitope mapping library, alanine scanning through site-directed mutagenesis (SDM) was performed on the entire loop 287-302 (TABLE 7, right column). All sites with loss of binding by alanine scanning (287, 293, 298, and 302) correspond to mutants isolated from the library. […] Since an average of 6-7 amino acid substitutions are accessible by single nucleotide mutagenesis, a larger range of physicochemical diversity can be sampled compared to alanine scanning. […] The C287R substitution raises this dissociation constant to 127 nM (68% confidence interval of 103-160 nM), which gives a ΔΔG value of +2.4 kcal/mol when compared to wild-type and, in alanine scanning terms, is an intermediate loss of binding (36).\n(§2) The epitope mapping library was constructed using the Stratagene GeneMorph® random mutagenesis kit to give a low mutagenesis rate. The template used for library construction was a pCT302 backbone containing EGFR fragment 273-621, with a C283A mutation to prevent disulfide mispairing, inserted for yeast display (27). The PCR products were gel purified and extracted using a Qiagen Qiaquick gel extraction kit. The library was transformed into Saccharomyces cerevisiae strain EBY100 (28) by electroporation (40) and homologous recombination (41) using a Bio-Rad (Richmond, Calif.) Gene Pulser Transfection Apparatus. […] Growth and expression of the library using yeast surface display was performed as previously described (28).\n(§3) Anti-c-myc chicken IgY fraction was purchased from Molecular Probes (Eugene, Oreg.). An appropriate number of yeast cells (at least 10× library size) were washed with FACS buffer (phosphate buffered saline containing 1 mg/ml bovine serum albumin). The cells were incubated with 4 μg/ml anti-c-myc chicken IgY and the appropriate concentration of mAb for 30 min at 25° C. The cells were then washed with FACS buffer and incubated with 1:25 dilution phycoerythrin-labeled goat anti-mouse IgG (Sigma) and 1:100 dilution Alexa Fluor® 488 goat anti-chicken IgG (Molecular Probes) for 30 min at 4° C. The labeled cells were rinsed, and cell libraries were sorted using a MoFlo FACS machine at the MIT flow cytometry core facility.\n(§4) Plasmids from the sorted library populations were recovered using Zymoprep™ and sequenced at the MIT Biopolymers Laboratory. Site-directed mutants were made using QuickChange® site-directed mutagenesis (Stratagene). Single clones were transformed into yeast using EZ Yeast Transformation (Zymo Research) and grown in minimal media (yeast nitrogen base, casein hydrolysate, dextrose, and phosphate buffer pH 7.4) overnight. Yeast surface protein expression was induced by transferring to minimal media with galactose and incubating overnight. For each clone, 1×10^6 cells were labeled as before with anti-c-myc chicken IgY, the appropriate mAb, and secondary fluorescent antibodies. Fluorescence data was obtained using a Coulter Epics XL flow cytometer (Beckman-Coulter) and was analyzed using DakoCytomation Summit™ software", "values": [{"substance": "C287Y: yeast displayed EGFR 273-621 point mutant from library", "mAb […] Binding": "+"}, {"substance": "C287S: yeast displayed EGFR 273-621 point mutant from library", "mAb […] Binding": "+"}, {"substance": "C287G: yeast displayed EGFR 273-621 point mutant from library", "mAb […] Binding": "+"}, {"substance": "C302S: yeast displayed EGFR 273-621 point mutant from library", "mAb […] Binding": "−"}, {"substance": "G298S: yeast displayed EGFR 273-621 point mutant from library", "mAb […] Binding": "−"}, {"substance": "R300C: yeast displayed EGFR 273-621 point mutant from library", "mAb […] Binding": "+"}, {"substance": "K301E: yeast displayed EGFR 273-621 point mutant from library", "mAb […] Binding": "+"}, {"substance": "G298D: yeast displayed EGFR 273-621 point mutant from library", "mAb […] Binding": "−"}, {"substance": "E293D: yeast displayed EGFR 273-621 point mutant from library", "mAb […] Binding": "+"}, {"substance": "C302G: yeast displayed EGFR 273-621 point mutant from library", "mAb […] Binding": "−"}, {"substance": "C287R: yeast displayed EGFR 273-621 point mutant from library", "mAb […] Binding": "+"}, {"substance": "C302F: yeast displayed EGFR 273-621 point mutant from library", "mAb […] Binding": "+"}, {"substance": "E293K: yeast displayed EGFR 273-621 point mutant from library", "mAb […] Binding": "−"}, {"substance": "R300P: yeast displayed EGFR 273-621 point mutant from library", "mAb […] Binding": "−"}, {"substance": "D297Y: yeast displayed EGFR 273-621 point mutant from library", "mAb […] Binding": "+"}, {"substance": "E293G: yeast displayed EGFR 273-621 point mutant from library", "mAb […] Binding": "+"}, {"substance": "C302R: yeast displayed EGFR 273-621 point mutant from library", "mAb […] Binding": "+"}, {"substance": "C287W: yeast displayed EGFR 273-621 point mutant from library", "mAb […] Binding": "+"}, {"substance": "C302Y: yeast displayed EGFR 273-621 point mutant from library", "mAb […] Binding": "+"}]}, {"tested_on": "mAb 806", "experiment": "Binding of yeast surface displayed EGFR 273-621 point mutants to mAb […] (flow cytometry)", "design": "species or system mouse; key: ++ indicates wild type binding; +, intermediate binding; −, binding equal to negative control", "details": "EGFR Mutant (SDM) in loop 287-302, 273-621 on yeast; 75 nM 806", "method": "as §1, §2, §3, §4", "values": [{"substance": "V299A: yeast displayed EGFR 273-621 site-directed mutant", "mAb […] Binding": "++"}, {"substance": "A289K: yeast displayed EGFR 273-621 site-directed mutant", "mAb […] Binding": "++"}, {"substance": "V299D: yeast displayed EGFR 273-621 site-directed mutant", "mAb […] Binding": "−"}, {"substance": "R300A: yeast displayed EGFR 273-621 site-directed mutant", "mAb […] Binding": "++"}, {"substance": "S291A: yeast displayed EGFR 273-621 site-directed mutant", "mAb […] Binding": "++"}, {"substance": "E293A: yeast displayed EGFR 273-621 site-directed mutant", "mAb […] Binding": "+"}, {"substance": "C302A: yeast displayed EGFR 273-621 site-directed mutant", "mAb […] Binding": "−"}, {"substance": "M294A: yeast displayed EGFR 273-621 site-directed mutant", "mAb […] Binding": "++"}, {"substance": "E296A: yeast displayed EGFR 273-621 site-directed mutant", "mAb […] Binding": "++"}, {"substance": "G288A: yeast displayed EGFR 273-621 site-directed mutant", "mAb […] Binding": "++"}, {"substance": "G298A: yeast displayed EGFR 273-621 site-directed mutant", "mAb […] Binding": "+"}, {"substance": "E295A: yeast displayed EGFR 273-621 site-directed mutant", "mAb […] Binding": "++"}, {"substance": "D297A: yeast displayed EGFR 273-621 site-directed mutant", "mAb […] Binding": "++"}, {"substance": "C287A: yeast displayed EGFR 273-621 site-directed mutant", "mAb […] Binding": "+"}, {"substance": "V299K: yeast displayed EGFR 273-621 site-directed mutant", "mAb […] Binding": "++"}, {"substance": "D290A: yeast displayed EGFR 273-621 site-directed mutant", "mAb […] Binding": "++"}, {"substance": "K301A: yeast displayed EGFR 273-621 site-directed mutant", "mAb […] Binding": "++"}, {"substance": "Y292A: yeast displayed EGFR 273-621 site-directed mutant", "mAb […] Binding": "++"}]}, {"tested_on": "mAb 806", "experiment": "Binding of yeast surface displayed EGFR 273-621 point mutants to mAb […] (flow cytometry)", "design": "species or system mouse; key: ++ indicates wild type binding; +, intermediate binding; −, binding equal to negative control", "details": "wild-type EGFR 273-621 on yeast; 75 nM 806", "method": "as §1, §2, §3, §4", "values": [{"substance": "wild-type 273-621: yeast surface displayed wild-type EGFR fragment 273-621", "mAb […] binding score": "++"}]}, {"tested_on": "mAb 806 binding to immobilized 501-Fc", "experiment": "ELISA, peptide inhibition of mAb […] binding to 501-Fc", "design": "species or system human", "details": "increasing concentrations of peptide", "values": [{"substance": "EEGVRKC (epitope peptide) [C-terminal (EEGVRKC), C-terminal fragment from cyanogen bromide cleavage of the 287-302 peptide]", "inhibition of mAb […] binding to 501-Fc (ELISA)": "incapable of inhibiting"}, {"substance": "CGADSYEM (epitope peptide) [N-terminal fragment from cyanogen bromide cleavage of the 287-302 peptide]", "inhibition of mAb […] binding to 501-Fc (ELISA)": "incapable of inhibiting"}]}, {"tested_on": "mAb 806 binding to immobilized 287-302 EGFR peptide", "experiment": "BIAcore, soluble EGFR peptides blocking mAb […] binding", "design": "species or system human", "details": "mAb […] 500 nM; soluble peptide 5 and 10 μM; amine coupling", "procedure": "Analysis of mAb 806 binding to peptides by BIAcore. […] Binding affinity was then determined by Scatchard analysis (insert).\nA BIAcore 3000 was used for all experiments. The peptides containing the putative mAb 806 epitope were immobilised on a CM5 sensor chip using amine or thiol-disulphide exchange coupling at a flow rate of 5 μl/min (34). The 806 antibody was passed over the sensor surface at a flow rate of 5 μl/min at 25° C. The surfaces were generated between runs by injecting 10 mM HCl at a flow rate of 10 μl/min.", "values": [{"substance": "CGADSYEMEEDGVRK (epitope peptide) [287-301 EGFR peptide]", "inhibition of mAb […] binding to immobilized 287-302 EGFR peptide (BIAcore)": "weakly inhibit"}, {"substance": "CGADSYEMEEDG (epitope peptide) [287-298 EGFR peptide]", "inhibition of mAb […] binding to immobilized 287-302 EGFR peptide (BIAcore)": "unable to prevent binding"}]}]}
